In ChEMBL document CHEMBL1201862, “PubChem BioAssay data set” (2004):
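In this assay, cells in 96-well plates receive the compound at five concentrations for 48 hours. Endpoints are linearly interpolated between the surrounding concentrations. Abbreviation: GI50, concentration required for 50% inhibition of growth.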 Active and inactive are the calls of the source. Cut-off read from the data, not from the text of the source: active = GI50 up to about 1.1 µM and inactive = higher.

What was measured:
Experiment in all cases: DTP human tumour cell line panel, 48 h
[1] = system: COLO 205
[2] = system: SK-OV-3
[3] = system: CAKI-1
[4] = system: NCI/ADR-RES
[5] = system: M14
[6] = system: UO-31
[7] = system: CCRF-CEM
[8] = system: DU-145
[9] = system: OVCAR-3
[10] = system: HCT-15
[11] = system: MOLT-4
[12] = system: HOP-92
[13] = system: Malme-3M
[14] = system: RXF 393
[15] = system: A549
[16] = system: T47D
[17] = system: HCT-116
[18] = system: IGROV-1
[19] = system: ACHN
[20] = system: OVCAR-4

SMILES	GI50 [1]	GI50 [2]	GI50 [3]	GI50 [4]	GI50 [5]	GI50 [6]	GI50 [7]	GI50 [8]	GI50 [9]	GI50 [10] [µM]	GI50 [11]	GI50 [12]	GI50 [13]	GI50 [14]	GI50 [15]	GI50 [16]	GI50 [17]	GI50 [18]	GI50 [19]	GI50 [20]
COC(=O)NC(Nc1ccc(Cl)cc1Cl)(C(F)(F)F)C(F)(F)F	28.2 µM (inactive)	73.6 µM (inactive)	24.5 µM (inactive)	86.5 µM (inactive)	52.4 µM (inactive)	18 µM (inactive)	28.5 µM (inactive)	35.3 µM (inactive)	79.6 µM (inactive)	4.38	37.8 µM (inactive)	73.3 µM (inactive)	> 100 µM (inactive)	> 100 µM (inactive)	38.4 µM (inactive)	47 µM (inactive)	64.7 µM (inactive)	61.7 µM (inactive)	10.5 µM (inactive)	–
O=C(CCCCCCC(=O)Nc1cccnc1)NO [PYROXAMIDE]	2.77 µM (inactive)	5.19 µM (inactive)	16.6 µM (inactive)	1.81 µM (inactive)	4.45 µM (inactive)	6.5 µM (inactive)	1.31 µM (inactive)	3.71 µM (inactive)	2.86 µM (inactive)	34.4	2.2 µM (inactive)	12.8 µM (inactive)	0.902 µM (active)	5.89 µM (inactive)	21.7 µM (inactive)	1.47 µM (inactive)	3.54 µM (inactive)	14.7 µM (inactive)	15.7 µM (inactive)	10.4 µM (inactive)
CC1CCC(=O)C(C(=O)CC2CC(=O)NC(=O)C2)C1 (stereo unspecified)	> 100 µM (inactive)	> 100 µM (inactive)	> 100 µM (inactive)	> 100 µM (inactive)	> 100 µM (inactive)	> 100 µM (inactive)	> 100 µM (inactive)	> 100 µM (inactive)	> 100 µM (inactive)	> 100	> 100 µM (inactive)	> 100 µM (inactive)	> 100 µM (inactive)	> 100 µM (inactive)	> 100 µM (inactive)	> 100 µM (inactive)	> 100 µM (inactive)	> 100 µM (inactive)	> 100 µM (inactive)	> 100 µM (inactive)
O=C1C(Cl)=C(N2CCC[C@@H]2CO)C(=O)c2c(O)ccc(O)c21	1.55 µM (inactive)	2.9 µM (inactive)	1.58 µM (inactive)	2.41 µM (inactive)	1.67 µM (inactive)	1.82 µM (inactive)	0.244 µM (active)	1.84 µM (inactive)	1.67 µM (inactive)	1.87	0.269 µM (active)	1.66 µM (inactive)	1.64 µM (inactive)	1.6 µM (inactive)	2.08 µM (inactive)	1.78 µM (inactive)	1.44 µM (inactive)	1.79 µM (inactive)	1.6 µM (inactive)	1.76 µM (inactive)
O=C1CC(Cc2n[nH]c3c2CCCC3)CC(=O)N1	> 100 µM (inactive)	> 100 µM (inactive)	> 100 µM (inactive)	> 100 µM (inactive)	> 100 µM (inactive)	–	37.1 µM (inactive)	> 100 µM (inactive)	> 100 µM (inactive)	> 100	> 100 µM (inactive)	> 100 µM (inactive)	> 100 µM (inactive)	> 100 µM (inactive)	> 100 µM (inactive)	> 100 µM (inactive)	> 100 µM (inactive)	> 100 µM (inactive)	–	> 100 µM (inactive)
CCc1cc2c(c3c1CCCC3=O)CC1(C2)Cc2cc(CC)c3c(c2C1)C(=O)CCC3	> 100 µM (inactive)	> 100 µM (inactive)	89.5 µM (inactive)	> 100 µM (inactive)	> 100 µM (inactive)	> 100 µM (inactive)	26.7 µM (inactive)	> 100 µM (inactive)	86.3 µM (inactive)	> 100	35.2 µM (inactive)	57.9 µM (inactive)	25.3 µM (inactive)	> 100 µM (inactive)	> 100 µM (inactive)	> 100 µM (inactive)	61.1 µM (inactive)	> 100 µM (inactive)	66.4 µM (inactive)	73.6 µM (inactive)
N#Cc1c(Cl)cccc1Oc1ccc(S(=O)(=O)N/C(=N\O)Nc2ccc(Cl)cc2)cc1	18.2 µM (inactive)	–	15.5 µM (inactive)	20.7 µM (inactive)	15.7 µM (inactive)	14.2 µM (inactive)	18.9 µM (inactive)	18.8 µM (inactive)	15.8 µM (inactive)	17.3	18.4 µM (inactive)	11 µM (inactive)	19.2 µM (inactive)	17.9 µM (inactive)	16.8 µM (inactive)	13.2 µM (inactive)	14.2 µM (inactive)	16.3 µM (inactive)	15.6 µM (inactive)	14.8 µM (inactive)
CCC1C(NC(=O)OC)C(=O)N1[C@@H](C)c1ccccc1 (stereo partly specified)	> 100 µM (inactive)	> 100 µM (inactive)	> 100 µM (inactive)	> 100 µM (inactive)	> 100 µM (inactive)	> 100 µM (inactive)	–	> 100 µM (inactive)	> 100 µM (inactive)	> 100	> 100 µM (inactive)	> 100 µM (inactive)	> 100 µM (inactive)	> 100 µM (inactive)	–	> 100 µM (inactive)	> 100 µM (inactive)	> 100 µM (inactive)	> 100 µM (inactive)	> 100 µM (inactive)
C(#C[C@@]12CCC[C@@H]1NCO2)c1ccc2c(c1)OCO2	16.9 µM (inactive)	> 100 µM (inactive)	67.1 µM (inactive)	37.5 µM (inactive)	24.7 µM (inactive)	30.3 µM (inactive)	42.6 µM (inactive)	> 100 µM (inactive)	65.6 µM (inactive)	54.8	22.2 µM (inactive)	35 µM (inactive)	28.1 µM (inactive)	49.3 µM (inactive)	> 100 µM (inactive)	58.2 µM (inactive)	–	45.9 µM (inactive)	65 µM (inactive)	85.9 µM (inactive)
COC(=O)c1cccc(C)c1C1CN=NC12Cc1cc(C)cc(C)c1C2=O (stereo unspecified)	–	–	78.2 µM (inactive)	23.1 µM (inactive)	34.8 µM (inactive)	55.1 µM (inactive)	28.4 µM (inactive)	41.3 µM (inactive)	47.1 µM (inactive)	51.1	27 µM (inactive)	47.8 µM (inactive)	32.2 µM (inactive)	29.4 µM (inactive)	33.5 µM (inactive)	23.2 µM (inactive)	22.8 µM (inactive)	52.5 µM (inactive)	28.8 µM (inactive)	51.1 µM (inactive)
O=c1c2cccnc2[nH]c2ccc3[nH]ncc3c12	> 10 µM (inactive)	> 10 µM (inactive)	7.45 µM (inactive)	> 10 µM (inactive)	> 10 µM (inactive)	–	> 10 µM (inactive)	> 10 µM (inactive)	> 10 µM (inactive)	6.18	> 10 µM (inactive)	> 10 µM (inactive)	> 10 µM (inactive)	> 10 µM (inactive)	> 10 µM (inactive)	> 10 µM (inactive)	7.91 µM (inactive)	6.11 µM (inactive)	5.13 µM (inactive)	> 10 µM (inactive)
O=C1/C(=C/c2ccccc2)CCCC1CN1CCCCC1 (stereo unspecified)	3 µM (inactive)	17.2 µM (inactive)	1.81 µM (inactive)	3.24 µM (inactive)	1.89 µM (inactive)	1.88 µM (inactive)	–	14.3 µM (inactive)	1.71 µM (inactive)	2.04	1.43 µM (inactive)	2.24 µM (inactive)	1.82 µM (inactive)	1.83 µM (inactive)	17.5 µM (inactive)	1.77 µM (inactive)	1.68 µM (inactive)	2.97 µM (inactive)	3.4 µM (inactive)	2.05 µM (inactive)
CCC(=O)C1(c2ccccc2)CCN(C)CC1	> 100 µM (inactive)	> 100 µM (inactive)	> 100 µM (inactive)	> 100 µM (inactive)	> 100 µM (inactive)	> 100 µM (inactive)	> 100 µM (inactive)	> 100 µM (inactive)	–	> 100	> 100 µM (inactive)	> 100 µM (inactive)	> 100 µM (inactive)	> 100 µM (inactive)	> 100 µM (inactive)	> 100 µM (inactive)	> 100 µM (inactive)	> 100 µM (inactive)	> 100 µM (inactive)	> 100 µM (inactive)
O=c1c2ccccc2oc2c1ccc1ncccc12	17.3 µM (inactive)	6.38 µM (inactive)	3.34 µM (inactive)	10.4 µM (inactive)	–	5.93 µM (inactive)	11.1 µM (inactive)	4.69 µM (inactive)	18 µM (inactive)	11.9	3.08 µM (inactive)	5.53 µM (inactive)	14.8 µM (inactive)	13.4 µM (inactive)	5.4 µM (inactive)	12.1 µM (inactive)	6.34 µM (inactive)	11 µM (inactive)	5.55 µM (inactive)	14.4 µM (inactive)
CC(=O)O[C@@H]1[C@H](C(C)C)[C@@H](OC(C)=O)C/C(C)=C/CC[C@]2(C)O[C@@H]12	> 100 µM (inactive)	> 100 µM (inactive)	> 100 µM (inactive)	> 100 µM (inactive)	> 100 µM (inactive)	> 100 µM (inactive)	–	> 100 µM (inactive)	> 100 µM (inactive)	> 100	> 100 µM (inactive)	> 100 µM (inactive)	> 100 µM (inactive)	> 100 µM (inactive)	> 100 µM (inactive)	> 100 µM (inactive)	> 100 µM (inactive)	> 100 µM (inactive)	> 100 µM (inactive)	> 100 µM (inactive)
